According to PubChem BioAssay AID248 (DTP/NCI, 2004):
Several values for one entry are separate records, joined by “and”; a condition that tells them apart may be missing. Equal values may be shown once. Toxic doses and inconclusive results are not listed. Cut-off read from the data, not from the text of the source: active = T/C of 150% or more; inactive = T/C below 125%.

Test system: L1210 leukemia ip in BDF1 mice, survival T/C
Assay: NCI In Vivo Anticancer Drug Screen. Data for tumor model L1210 Leukemia (intraperitoneal) in B6D2F1 (BDF1) mice
Details: endpoint: mean survival time, higher = longer survival
Summary of the method: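 Survival endpoint. Drug-treated group vs vehicle group, expressed as T divided by C. Tumor passaged by transplantation.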

[1] = dose: 100.0 mg/kg/injection, schedule: Q01DX009 (ip), vehicle: saline
[2] = dose: 100.0 mg/kg/injection, schedule: Q04DX003 (ip), vehicle: saline
[3] = dose: 200.0 mg/kg/injection, schedule: Q01DX009 (ip), vehicle: saline
[4] = dose: 200.0 mg/kg/injection, schedule: Q04DX003 (ip), vehicle: saline
[5] = dose: 400.0 mg/kg/injection, schedule: Q01DX009 (ip), vehicle: saline
[6] = dose: 400.0 mg/kg/injection, schedule: Q04DX003 (ip), vehicle: saline
[7] = dose: 100.0 mg/kg/injection, schedule: Q01DX009 (ip), vehicle: Klucel (hydroxypropylcellulose) (HPC)
[8] = dose: 100.0 mg/kg/injection, schedule: Q04DX003 (ip), vehicle: Klucel (hydroxypropylcellulose) (HPC)
[9] = dose: 200.0 mg/kg/injection, schedule: Q01DX009 (ip), vehicle: Klucel (hydroxypropylcellulose) (HPC)
[10] = dose: 200.0 mg/kg/injection, schedule: Q04DX003 (ip), vehicle: Klucel (hydroxypropylcellulose) (HPC)
[11] = dose: 400.0 mg/kg/injection, schedule: Q01DX009 (ip), vehicle: Klucel (hydroxypropylcellulose) (HPC)
[12] = dose: 400.0 mg/kg/injection, schedule: Q04DX003 (ip), vehicle: Klucel (hydroxypropylcellulose) (HPC)
[13] = dose: 100.0 mg/kg/injection, schedule: Q04DX003 (ip), vehicle: saline with Tween-80
[14] = dose: 200.0 mg/kg/injection, schedule: Q04DX003 (ip), vehicle: saline with Tween-80
[15] = dose: 100.0 mg/kg/injection, schedule: Q01DX001 (ip), vehicle: saline with Tween-80
[16] = dose: 100.0 mg/kg/injection, schedule: Q01DX001 (ip), vehicle: Klucel (hydroxypropylcellulose) (HPC)
[17] = dose: 200.0 mg/kg/injection, schedule: Q01DX001 (ip), vehicle: Klucel (hydroxypropylcellulose) (HPC)
[18] = dose: 400.0 mg/kg/injection, schedule: Q01DX001 (ip), vehicle: Klucel (hydroxypropylcellulose) (HPC)
[19] = dose: 200.0 mg/kg/injection, schedule: Q01DX001 (ip), vehicle: saline with Tween-80
[20] = dose: 400.0 mg/kg/injection, schedule: Q01DX001 (ip), vehicle: saline with Tween-80
[21] = dose: 100.0 mg/kg/injection, schedule: Q01DX001 (ip), vehicle: carboxymethylcellulose (CMC)
[22] = dose: 200.0 mg/kg/injection, schedule: Q01DX001 (ip), vehicle: carboxymethylcellulose (CMC)
[23] = dose: 400.0 mg/kg/injection, schedule: Q01DX001 (ip), vehicle: carboxymethylcellulose (CMC)

Measured: T/C

CCOC(=O)CCN1CCOCC1
inactive: [1] 100 % of control | [2] 111 % of control | [3] 101 % of control | [4] 101 % of control | [5] 111 % of control | [6] 101 % of control

Cc1cc([N+](C)(C)C)cc(C)c1C#[N+][O-]
inactive: dose: 1.25 mg/kg/injection, schedule: Q01DX001 (ip), vehicle: saline 104 % of control | dose: 2.5 mg/kg/injection, schedule: Q01DX001 (ip), vehicle: saline 93 % of control | dose: 5.0 mg/kg/injection, schedule: Q01DX001 (ip), vehicle: saline 102 % of control | dose: 10.0 mg/kg/injection, schedule: Q01DX001 (ip), vehicle: saline 102 % of control

CCCCC(C(=O)OCC)C(CCC1CCCCC1)(C(=O)OCC)C(=O)OCC (stereo not drawn)
inactive: [7] 95 % of control | [8] 96 % of control | [9] 110 % of control | [10] 106 % of control | [11] 105 % of control | [12] 95 % of control

CC1=CC(=O)OC1=O (tested in a mixture with another compound)
inactive: dose: 37.5 mg/kg/injection, schedule: Q01DX009 (ip), vehicle: carboxymethylcellulose (CMC) 117 % of control | dose: 75.0 mg/kg/injection, schedule: Q01DX001 (ip), vehicle: carboxymethylcellulose (CMC) 109 % of control | dose: 150.0 mg/kg/injection, schedule: Q01DX001 (ip), vehicle: carboxymethylcellulose (CMC) 118 % of control

COC(=O)C(CCC(=O)CCl)N1C(=O)c2ccccc2C1=O (stereo not drawn)
inactive: [13] 89 % of control | [14] 89 % of control

O=c1ccnc(-c2ccccc2)[nH]1
inactive: dose: 100.0 mg/kg/injection, schedule: Q04DX002 (ip), vehicle: Klucel (hydroxypropylcellulose) (HPC) 119 % of control | dose: 200.0 mg/kg/injection, schedule: Q04DX002 (ip), vehicle: Klucel (hydroxypropylcellulose) (HPC) 119 % of control | dose: 400.0 mg/kg/injection, schedule: Q04DX002 (ip), vehicle: Klucel (hydroxypropylcellulose) (HPC) 114 % of control

CC(=O)CCC(=O)OCCOC(=O)CCC(C)=O
inactive: [1] 98 % of control and 105 % of control | [2] 96 % of control and 104 % of control | [3] 93 % of control and 95 % of control | [4] 100 % of control | [5] 98 % of control and 104 % of control | [6] 100 % of control and 106 % of control

CSc1sc2ccccc2[n+]1C
inactive: dose: 25.0 mg/kg/injection, schedule: Q01DX009 (ip), vehicle: saline 102 % of control | dose: 50.0 mg/kg/injection, schedule: Q01DX009 (ip), vehicle: saline 96 % of control and 108 % of control | [2] 97 % of control | [4] 113 % of control

Nc1nc(=O)[nH]nc1SCc1ccccc1
inactive: dose: 100.0 mg/kg/injection, schedule: Q01DX001 (ip), vehicle: saline 104 % of control | dose: 200.0 mg/kg/injection, schedule: Q01DX001 (ip), vehicle: saline 98 % of control | dose: 400.0 mg/kg/injection, schedule: Q01DX001 (ip), vehicle: saline 98 % of control

CC(=O)OC(CC[P+](c1ccccc1)(c1ccccc1)c1ccccc1)(C(=O)c1ccccc1)c1ccccc1 (stereo not drawn)
inactive: [15] 95 % of control

O=C1c2ccccc2C(=O)C1c1ccc2ccccc2n1
inactive: [13] 95 % of control | [14] 91 % of control | dose: 400.0 mg/kg/injection, schedule: Q04DX003 (ip), vehicle: saline with Tween-80 93 % of control

CCSC(SCC)C(OC(C)=O)C(OC(C)=O)C(OC(C)=O)C(CNC(C)=O)OC(C)=O (stereo not drawn)
inactive: dose: 25.0 mg/kg/injection, schedule: Q04DX003 (ip), vehicle: saline with Tween-80 97 % of control | dose: 50.0 mg/kg/injection, schedule: Q04DX003 (ip), vehicle: saline with Tween-80 94 % of control | [13] 93 % of control and 89 % of control

CCCCOC(=O)Nc1cc(Cl)ccc1C
inactive: dose: 100.0 mg/kg/injection, schedule: Q01DX001 (ip), vehicle: gum acacia 95 % of control | dose: 200.0 mg/kg/injection, schedule: Q01DX001 (ip), vehicle: gum acacia 96 % of control | dose: 400.0 mg/kg/injection, schedule: Q01DX001 (ip), vehicle: gum acacia 98 % of control

Cc1cc(C)c(N(C)C(=O)CCC(=O)O)c(Br)c1
inactive: [7] 89 % of control | [8] 101 % of control | [9] 101 % of control | [10] 100 % of control | [11] 101 % of control | [12] 94 % of control

CC(=O)NCCC(C)C
inactive: [2] 98 % of control | [4] 98 % of control | [6] 95 % of control

O=C1c2c(cccc2NCCO)Cc2cccc(NCCO)c21
inactive: [16] 102 % of control | [8] 98 % of control | [17] 104 % of control | [10] 93 % of control | [18] 96 % of control | [12] 96 % of control

CC1Oc2ccccc2OC1NC1=NCCO1 (stereo not drawn)
inactive: [16] 97 % of control | [8] 100 % of control | [17] 103 % of control | [10] 100 % of control | [18] 102 % of control | [12] 108 % of control

CCCCCCCCCCCCCCC
inactive: [15] 107 % of control | [19] 95 % of control | [20] 91 % of control

Cn1c(CN(CCCl)CCCl)nc2c1c(=O)[nH]c(=O)n2C
inactive: dose: 50.0 mg/kg/injection, schedule: Q01DX001 (ip), vehicle: carboxymethylcellulose (CMC) 108 % of control | [21] 102 % of control | dose: 178.0 mg/kg/injection, schedule: Q01DX001 (ip), vehicle: carboxymethylcellulose (CMC) 109 % of control | [22] 119 % of control | dose: 267.0 mg/kg/injection, schedule: Q01DX001 (ip), vehicle: carboxymethylcellulose (CMC) 111 % of control and 116 % of control | [23] 93 % of control | dose: 600.0 mg/kg/injection, schedule: Q01DX001 (ip), vehicle: carboxymethylcellulose (CMC) 90 % of control

N#Cc1ccc(OCCCOc2ccc([N+](=O)[O-])cc2)cc1
inactive: [8] 106 % of control | [10] 100 % of control | [12] 103 % of control

O=C1C(=O)N2c3ccccc3CCc3cccc1c32
inactive: [15] 103 % of control | dose: 100.0 mg/kg/injection, schedule: Q01DX009 (ip), vehicle: saline with Tween-80 96 % of control | [19] 93 % of control | dose: 200.0 mg/kg/injection, schedule: Q01DX009 (ip), vehicle: saline with Tween-80 100 % of control | [20] 97 % of control | dose: 400.0 mg/kg/injection, schedule: Q01DX009 (ip), vehicle: saline with Tween-80 100 % of control

CCC(C)C(CCN1CCCCC1)(CNC(=O)CN(CC)CC)Cc1cccc2ccccc12 (stereo not drawn)
inactive: dose: 12.5 mg/kg/injection, schedule: Q04DX003 (ip), vehicle: saline 101 % of control | dose: 25.0 mg/kg/injection, schedule: Q04DX003 (ip), vehicle: saline 103 % of control | dose: 50.0 mg/kg/injection, schedule: Q04DX003 (ip), vehicle: saline 98 % of control

CCCCCC(=O)C(CCCC)C(=O)Nc1ccccc1 (stereo not drawn)
inactive: [21] 96 % of control | [22] 91 % of control | [23] 91 % of control
